Results on three molecules are retold here after patent US6407088B1 (priority 2000, dated 2002).

One data set relates to Salmonella TA98. Conditions: Dexon 50.0, −S9; control 36 ± 5.
The subject of another data set is Salmonella TA102. Conditions: Dexon 50.0, −S9; control 270 ± 45.
In another data set the test system is Salmonella TA100. As to conditions: Dexon 50.0, −S9; control 130 ± 11.
Another data set relates to Salmonella TA97. Conditions: Dexon 50.0, −S9; control 138 ± 18.
In data set [1] the test system is Kunming mice. Conditions: mouse, in vivo.
In data set [2] the test system is Kunming mice. As to conditions: mouse, in vivo. The source holds these as a separate data set.
The test system of data set [3] is Kunming mice. As to conditions: Kunming, mouse, in vivo.
In data set [4] the test system is rats. As to the kind of experiment: Tail-flick test in rats. Conditions: rat, in vivo. (In general: Hot-plate and tail-flick tests time the reaction to a heat stimulus.)
For data set [5], the system named is rats. As to conditions: rat, in vivo.
Data set [6] concerns monkeys. Conditions: rhesus monkey, in vivo.
A further data set has as its system Wistar rats. Put plainly: Formalin induced inflammation test in rats. As to conditions: rat, in vivo.
Data set [7] deals with monkeys. Conditions: rhesus monkey, in vivo. This is another data set of the same source.
Another data set concerns mice. As to conditions: mouse, in vivo.

Molecules are shown by their SMILES. Marks after values point to notes of the source that are not given here.

Take `CN(C)c1ccc(N=NS(=O)(=O)[O-])cc1.[Na+]` [Dexon]: the “Number of revertant Salmonella colonies, TA98” value with Salmonella TA98 worked out at 604 ± 86. Further, the “Number of revertant Salmonella colonies, TA102” value in the data set with Salmonella TA102 is 858 ± 79. In addition, the “Number of revertant Salmonella colonies, TA100” value in the data set with Salmonella TA100 worked out at 562 ± 50. Moreover, the “Number of revertant Salmonella colonies, TA97” value with Salmonella TA97 was determined as 1567 ± 315.

For `CN1C(=O)CN=C(c2ccccc2)c2cc(Cl)ccc21` [Diazepam], the “Number of positively effected animals” value in the data set on Kunming mice [1] is recorded as 8 ***. Besides, the “Number of autonomic mobility (X ± SD)” value in the data set on Kunming mice [2] is on record as 323 ± 203 |||. Moreover, in the data set with Kunming mice [3], the “Sleeping time (X ± SD)” value is recorded as 146.2 ± 53. ||| min.

`CN1CC[C@]23c4c5ccc(O)c4O[C@H]2[C@@H](O)C=C[C@H]3[C@H]1C5` [Morphine, morphine] yielded a Latency time in the data set on rats [4] above 20 min. In the data set on rats [5], the “Score of body weight loss (Mean ± SD)” value is reported as 10.00 ± 2.60 and the “Score of withdrawal symptoms (Mean ± SD)” value is 7.38 ± 1.16. Besides, the “Score of Withdrawal Symptoms” value in the data set with monkeys [6] (Guangxi) was determined as 61.0 ± 2.6. Besides, the “Body Weight Loss (%)” value with monkeys [6] came to 6.6 ± 1.7%. Moreover, the “ID50 (95% CI)” value with Wistar rats was found to be 2.74 mg/kg. Besides, the “ID50 (95% CI)” value in the data set on Wistar rats (sc) is given as 2.63 (2.32 ˜ 2.98) mg/kg. The “Percentage change in body weight, Overall Mean X ± SD” value in the data set with monkeys [7] was −6.1. In addition, in the data set with mice, the “Jumping Frequency (X ± SD)” value turned out to be 19.7 ± 16.3 and the “Jumping Incidence (%)” value was determined as 90.0%.
